Test results published in patent US10301320B2, “Compositions and methods of modulating 15-PGDH activity” (CASE WESTERN RESERVE UNIVERSITY, priority 2012, dated 2019).
Entries after “also recorded” stand apart in the source; their conditions may differ.
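Throughout, for Enzyme inhibition % (2.5 μM): activity of recombinant human 15-PGDH assayed in vitro using PGE2 as the substrate.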
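Throughout, for Enzyme inhibition % (7.5 μM): activity of recombinant human 15-PGDH assayed in vitro using PGE2 as the substrate.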
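Throughout, for Inhibition of recombinant 15-PGDH, in words: activity of recombinant human 15-PGDH assayed in vitro using PGE2 as the substrate.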

These molecules were tested on 15-PGDH-luciferase fusion reporter in V9m, LS174T and V503 cell lines (assay: 15-PGDH-luciferase fusion gene reporter induction in three colon cancer cell lines (stated jointly)). Details: not given.
Type: cell-based
In the case of `COc1ccc(S(=O)(=O)N(CC(=O)N2CCCCCC2)c2cc(OC)ccc2OC)cc1` [SW207998], the “Induction of 15-PGDH-luciferase reporter, in words” value (“Induction” below) is reported as “activity equal to, or in some assays greater than, SW054384; also recorded: active in inducing the 15-PGDH-luciferase reporter”.
In the case of `COc1ccc(OC)c(N(CC(=O)Nc2cccnc2)S(=O)(=O)c2ccc(Br)cc2)c1` [SW203737], the “Induction” value is reported as “active in inducing 15-PGDH-luciferase reporter activity; also recorded: active in inducing the 15-PGDH-luciferase reporter”.
In the case of `COc1ccc(S(=O)(=O)N(CC(=O)Nc2cccnc2)c2cc(OC)ccc2OC)cc1` [SW202940], the “Induction” value is reported as “active in inducing 15-PGDH-luciferase reporter activity”.
With `COc1ccc(S(=O)(=O)N(CC(=O)N2CCCCC2)c2cc(OC)ccc2OC)cc1` [SW207999] the “Induction” value was “active in inducing the 15-PGDH-luciferase reporter”.
In the case of `C[S+]([O-])c1sc2nc(-c3cccs3)cc(-c3ccccc3)c2c1N` (stereo not drawn) [SW208079, 2-(methylsulfinyl)-4-phenyl-6-(thiophen-2-yl)thieno[2,3-b]pyridin-3-amine], the “Induction” value is reported as “marked loss of activity in inducing the cell line reporters”.
In the case of `COc1ccc(OC)c(N(CC(=O)Nc2csnc2C)S(=O)(=O)c2ccccc2)c1` [SW203703], the “Induction” value is reported as “active in inducing the 15-PGDH-luciferase reporter”.
`COc1ccc(OC)c(N(CC(=O)Nc2cc(C)no2)S(=O)(=O)c2ccccc2)c1` [SW203704] was tested, and the “Induction” value was “active in inducing the 15-PGDH-luciferase reporter”.

These molecules were tested on V9m reporter cell line expressing a 15-PGDH luciferase fusion construct (assay: 15-PGDH-luciferase fusion gene reporter induction, V9m cell line). Details: […]; % increased luciferase activity over basal level.
Type: cell-based
Description: (§1) These cell lines are Vaco-9m (V9m), LS174T, Vaco503 (V503). […] Value of 1.0 on the Y-axis is the basal level of reporter activity in cells treated with drug free DMSO vehicle.
(§2) This Example provides data on a group of structural analogues of SW033291. Data provided includes level of induction of a 15-PGDH-luciferase fusion gene reporter, recorded as % increased luciferase activity over basal level, in three colon cancer cell lines, V9m, V503, and LS174T, engineered to contain the reporter, and treated with either 2.5 uM or 7.5 uM compound (i.e., Values are recorded on a scale where 100 indicates of doubling of luciferase activity over baseline level).
(§3) FIGS. 27(A-C) show graphs that show the level of compound's activity in inducing the 15-PGDH-luciferase fusion reporter in three different test cell line backgrounds, V9m, LS174T, and V503. Each compound was tested at two concentrations, 2.5 uM, and 7.5 uM. Y-axis is luciferase activity.
(§4) Data provided include level of induction of a 15-PGDH-luciferase fusion gene reporter, recorded as % induction of luciferase activity over basal level, in three colon cancer cell lines, V9m, V503, and LS174T, engineered to contain the reporter, and treated with either 2.5 uM or 7.5 uM compound. […] Additionally, for selected compounds is recorded the decrease in PGE2 levels in the media of compound treated A549 cells that have been stimulated with IL-1 beta. Additionally recorded for selected compounds is the effect on A549 cell viability as measured by a CellTiter-Glo assay, and the effect of compounds on A549 cell colony formation.
For `CCCC[S+]([O-])c1sc2nc(-c3nccs3)cc(-c3ccccc3)c2c1N` (stereo not drawn) [SW208066, 2-(butylsulfinyl)-4-phenyl-6-(thiazol-2-yl)thieno[2,3-b]pyridin-3-amine], the “V9M reporter activity ([…])” value was 111.63%.

Same assay, conditions: […]; % increased luciferase activity over basal level, 100 = doubling
For `CCCC[S+]([O-])c1sc2nc(-c3nccs3)cc(-c3ccccc3)c2c1N` (stereo not drawn) [SW208066, 2-(butylsulfinyl)-4-phenyl-6-(thiazol-2-yl)thieno[2,3-b]pyridin-3-amine], the “V9M reporter activity ([…])” value was 122.72%.

Same assay, conditions: read-out: V9M reporter activity ([…]), Table 17; […]; % induction over basal level; read-out: V9M reporter activity (2.5 μM)
Molecule `COc1ccc(N(CC(=O)Nc2ccccc2Br)S(=O)(=O)c2ccccc2[N+](=O)[O-])c(OC)c1` [compound 1002065] has an activation at […] of 7.38%.
For `COc1ccc(S(=O)(=O)N(CC(=O)Nc2ccc(Br)cc2)c2cc(Cl)ccc2OC)cc1OC` [compound 771432], the activation at […] was -7.11%.

Same assay, conditions: read-out: V9M reporter activity ([…]), Table 17; […]; read-out: V9M reporter activity (7.5 μM)
`COc1ccc(N(CC(=O)Nc2ccccc2Br)S(=O)(=O)c2ccccc2[N+](=O)[O-])c(OC)c1` [compound 1002065] gave an activation at […] of 18.6%.
For `COc1ccc(S(=O)(=O)N(CC(=O)Nc2ccc(Br)cc2)c2cc(Cl)ccc2OC)cc1OC` [compound 771432], the activation at […] was -3.13%.

These molecules were tested on A549 cells (assay: PGE2 levels in medium of IL1-beta stimulated A549 cells). Details: 100 nM drug, 15-PGDH activators.
Type: cell-based
`COc1ccc(S(=O)(=O)N(CC(=O)N2CCCCCC2)c2cc(OC)ccc2OC)cc1` [SW207998] was tested, and the “Reduction in levels of PGE2 in the medium, ranking” value was “greatest reduction in levels of PGE2”.

Same assay, conditions: 100 nM drug, 15-PGDH inhibitors
In the case of `CCCC[S+]([O-])c1sc2nc(-c3nccs3)cc(-c3ccccc3)c2c1N` (stereo not drawn) [SW208066, 2-(butylsulfinyl)-4-phenyl-6-(thiazol-2-yl)thieno[2,3-b]pyridin-3-amine], the “PGE2 levels in the medium, ranking” value is reported as “highest levels of PGE2”.

Same assay, conditions: IL1-beta stimulated A549 cells
With `COc1ccc(OC)c(N(CC(=O)Nc2cccnc2)S(=O)(=O)c2ccc(Br)cc2)c1` [SW203737] the “Effect on PGE2 levels in medium, in words” value was “show activity in lowering PGE2”.
In the case of `COc1ccc(OC)c(N(CC(=O)Nc2csnc2C)S(=O)(=O)c2ccccc2)c1` [SW203703], the “Effect on PGE2 levels in medium, in words” value is reported as “show activity in lowering PGE2”.

These molecules were tested against recombinant 15-PGDH protein (Homo sapiens (Human), UniProt P15428) (assay: Inhibition of enzymatic activity of recombinant 15-PGDH in vitro). Details: not given.
Chain of recombinant 15-PGDH protein (P15428 whole entry): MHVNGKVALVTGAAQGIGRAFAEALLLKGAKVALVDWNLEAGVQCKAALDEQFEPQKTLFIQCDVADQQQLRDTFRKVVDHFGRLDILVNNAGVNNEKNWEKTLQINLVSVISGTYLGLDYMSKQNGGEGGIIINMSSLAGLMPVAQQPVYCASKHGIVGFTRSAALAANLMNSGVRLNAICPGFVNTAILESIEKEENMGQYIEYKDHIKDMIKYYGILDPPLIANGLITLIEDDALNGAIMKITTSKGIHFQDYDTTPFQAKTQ
Type: biochemical
`COc1ccc(S(=O)(=O)N(CC(=O)N2CCCCCC2)c2cc(OC)ccc2OC)cc1` [SW207998] was tested, and the “Inhibition of recombinant 15-PGDH, in words” value was “much less inhibition of enzymatic activity of 15-PGDH; also recorded: lesser inhibitory activity at high concentration”.
In the case of `COc1ccc(S(=O)(=O)N(CC(=O)N2CCCCC2)c2cc(OC)ccc2OC)cc1` [SW207999], the “Inhibition of recombinant 15-PGDH, in words” value is reported as “lesser inhibitory activity at high concentration”.

Same assay, conditions: read-out: Enzyme inhibition % ([…]), recombinant 15-PGDH, […] compound; read-out: Enzyme inhibition % (2.5 μM)
`COc1ccc(S(=O)(=O)N(CC(=O)N2CCCCCC2)c2cc(OC)ccc2OC)cc1` [SW207998] was tested, and the inhibition at […] was 8.09%.
For `COc1ccc(OC)c(N(CC(=O)Nc2cccnc2)S(=O)(=O)c2ccc(Br)cc2)c1` [SW203737], the inhibition at […] was 23.8%.
`COc1ccc(S(=O)(=O)N(CC(=O)Nc2cccnc2)c2cc(OC)ccc2OC)cc1` [SW202940] was tested, and the inhibition at […] was 24.3%.
`COc1ccc(S(=O)(=O)N(CC(=O)N2CCCCC2)c2cc(OC)ccc2OC)cc1` [SW207999] showed an inhibition at […] of -0.86%.
For `COc1ccc(OC)c(N(CC(=O)Nc2csnc2C)S(=O)(=O)c2ccccc2)c1` [SW203703], the inhibition at […] was 26.5%.
`COc1ccc(OC)c(N(CC(=O)Nc2cc(C)no2)S(=O)(=O)c2ccccc2)c1` [SW203704] showed an inhibition at […] of 4.19%.

Same assay, conditions: read-out: Enzyme inhibition % ([…]), recombinant 15-PGDH, […] compound; read-out: Enzyme inhibition % (7.5 μM)
For `COc1ccc(S(=O)(=O)N(CC(=O)N2CCCCCC2)c2cc(OC)ccc2OC)cc1` [SW207998], the inhibition at […] was 14.4%.
`COc1ccc(OC)c(N(CC(=O)Nc2cccnc2)S(=O)(=O)c2ccc(Br)cc2)c1` [SW203737] showed an inhibition at […] of 42.5%.
Molecule `COc1ccc(S(=O)(=O)N(CC(=O)Nc2cccnc2)c2cc(OC)ccc2OC)cc1` [SW202940] has an inhibition at […] of 63.3%.
In the case of `COc1ccc(S(=O)(=O)N(CC(=O)N2CCCCC2)c2cc(OC)ccc2OC)cc1` [SW207999], the inhibition at […] is reported as 3.34%.
`COc1ccc(OC)c(N(CC(=O)Nc2csnc2C)S(=O)(=O)c2ccccc2)c1` [SW203703] gave an inhibition at […] of 58.9%.
In the case of `COc1ccc(OC)c(N(CC(=O)Nc2cc(C)no2)S(=O)(=O)c2ccccc2)c1` [SW203704], the inhibition at […] is reported as 7.26%.

What follows are molecules tested on LS174T reporter cell line expressing a 15-PGDH luciferase fusion construct (assay: 15-PGDH-luciferase fusion gene reporter induction, LS174T cell line). Details: Homo sapiens, read-out: 1S174T reporter activity ([…]), Table 17, […], read-out: 1S174T reporter activity (7.5 μM).
Type: cell-based
Description: as §1, §2, §3, §4
With `COc1ccc(N(CC(=O)Nc2ccccc2Br)S(=O)(=O)c2ccccc2[N+](=O)[O-])c(OC)c1` [compound 1002065] the activation at […] was 15.2%.
With `COc1ccc(S(=O)(=O)N(CC(=O)Nc2ccc(Br)cc2)c2cc(Cl)ccc2OC)cc1OC` [compound 771432] the activation at […] was 4.24%.

Same assay, conditions: Homo sapiens, read-out: LS174T reporter activity ([…]), Table 17, […], read-out: LS174T reporter activity (2.5 μM)
`COc1ccc(N(CC(=O)Nc2ccccc2Br)S(=O)(=O)c2ccccc2[N+](=O)[O-])c(OC)c1` [compound 1002065] showed an activation at […] of 9.9%.
`COc1ccc(S(=O)(=O)N(CC(=O)Nc2ccc(Br)cc2)c2cc(Cl)ccc2OC)cc1OC` [compound 771432] showed an activation at […] of 3.86%.

Each molecule was assayed on Vaco503 reporter cell line expressing a 15-PGDH luciferase fusion construct (assay: 15-PGDH-luciferase fusion gene reporter induction, Vaco503 (V503) cell line). Details: read-out: V503 reporter activity ([…]), Table 17; […]; read-out: V503 reporter activity (2.5 μM).
Type: cell-based
Description: as §1, §2, §3, §4
Molecule `COc1ccc(N(CC(=O)Nc2ccccc2Br)S(=O)(=O)c2ccccc2[N+](=O)[O-])c(OC)c1` [compound 1002065] has an activation at […] of 38.1%.
Work on `COc1ccc(S(=O)(=O)N(CC(=O)Nc2ccc(Br)cc2)c2cc(Cl)ccc2OC)cc1OC` [compound 771432] yielded an activation at […] of 33.7%.

Same assay, conditions: read-out: V503 reporter activity ([…]), Table 17; […]; read-out: V503 reporter activity (7.5 μM)
`COc1ccc(N(CC(=O)Nc2ccccc2Br)S(=O)(=O)c2ccccc2[N+](=O)[O-])c(OC)c1` [compound 1002065] showed an activation at […] of 52.5%.
In the case of `COc1ccc(S(=O)(=O)N(CC(=O)Nc2ccc(Br)cc2)c2cc(Cl)ccc2OC)cc1OC` [compound 771432], the activation at […] is reported as 42.8%.
